Data set [1] deals with NQO1. Briefly: NQO1 expression induction test in mouse kidney (single administration). The data set is classed as in vivo. The following applies: Mus musculus, po, 6 h, BALB/c mouse kidney, 6 hours after administration, ratio to control group. In outline:
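Female BALB/c mice received a single oral dose of compound in 0.5% methylcellulose, with untreated mice as controls. Six hours later, left-kidney NQO1 mRNA was measured by SYBR real-time RT-PCR normalised to GAPDH. Induction was expressed as the ratio of mean treated to mean control expression.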

A short description of data set [2]: Metabolism test using human liver microsome fractions. The settings on record: human liver microsomes, test compound 10 μmol/L, NADPH and UDP-glucuronic acid, 37° C. The data set is classed as in vitro ADME. In a few lines: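 Compound depletion at 10 μmol/L final, 37 °C, followed by UV-HPLC of acetonitrile-quenched aliquots taken 0, 5, 10, 15, 20, 30 min; incubations contained microsomes (1 mg protein, human or monkey) with NADPH and UDPGA cofactors. Rate = slope over linear range.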

Data set [3] deals with NQO1. Briefly: NQO1 enzyme induction test (in vitro) in Hepa1c1c7 cells. The data set is classed as cell-based. The following applies: Mus musculus, Hepa-1c1c7, 48 h, concentration to elevate the NQO1 activity by 1.5 times, about 48 hours, read-out: EC150. In outline: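 Mouse Hepa1c1c7 cells treated about 48 h with compound (0.1% DMSO final), then lysed. NQO1 activity read as MTT reduction at 540 nm with menadione substrate, 5 min at room temperature, and corrected for cell number by CellTiter-Glo. EC150 is the concentration raising NQO1 activity 1.5-fold.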

Data set [4] concerns the target T1, GST fusion human Keap1 (amino acid residue: 325-624) protein (Homo sapiens, UniProt Q14145).
T1 construct: GST fusion human Keap1 (amino acid residue: 325-624) protein; purchased Protein tech Ag0779
Put plainly: Keap1-Nrf2 binding inhibition test (fluorescence polarization). The following applies: compound concentration of 100 nM; read-out: inhibition rate. In outline: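 Fluorescence polarization with FITC-labelled Nrf2 peptide (FITC-Ahx-LDEETGEFL-NH2) and GST-human Keap1 (325-624) in 20 mM Tris pH 7.5, 150 mM NaCl, 0.05% Tween 20, 5 mM DTT, BSA; 30 min at room temperature, ex 482/em 530 nm. Percent inhibition at 100 nM compound, Keap1-free wells = 100%.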

T1 sequence (Q14145 325-624): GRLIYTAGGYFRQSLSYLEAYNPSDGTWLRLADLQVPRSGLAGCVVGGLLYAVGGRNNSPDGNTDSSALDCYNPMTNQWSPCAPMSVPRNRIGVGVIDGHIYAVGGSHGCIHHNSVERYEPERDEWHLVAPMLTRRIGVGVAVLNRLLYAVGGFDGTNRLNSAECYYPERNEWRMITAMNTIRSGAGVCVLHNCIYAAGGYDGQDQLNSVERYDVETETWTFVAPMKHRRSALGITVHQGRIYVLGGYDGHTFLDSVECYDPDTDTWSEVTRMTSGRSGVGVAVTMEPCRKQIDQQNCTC

For the compound `CC[C@@H]1CN(Cc2cc(C(c3ccc4c(nnn4C)c3C)C(C)(C)C(=O)O)ccc2C)Cc2cc3nccc(OC)c3cc2O1` (stereo partly drawn) [Example 70-(b), 3-(1,4-dimethyl-1H-benzo[d][1,2,3]triazol-5-yl)-3-(3-(((R)-2-ethyl-10-methoxy-2,3-dihydro-[1,4]oxazepino[7,6-g]quinolin-4(5H)-yl)methyl)-4-methylphenyl)-2,2-dimethylpropanoic Acid], the fold induction at 20 mg/kg in the data set with NQO1 [1] was greater than 6. Besides, the Human metabolic rate entry in data set [2] is “E (metabolic rate≥250 pmol/min/mg protein)”. Further, in the data set on NQO1 [3], the EC (1.5-fold NQO1 activity) is 0.0005 to 0.005 µM. Moreover, the inhibition at 0.1 µM in data set [4] is no less than 50%.
On to `CC[C@@H]1CN(Cc2cc(C(c3ccc4c(nnn4C)c3C)C(C)(C)C(=O)O)ccc2C)Cc2ccc3c(c2O1)CCCC3` (stereo partly drawn) [Example 7-(b), 3-(1,4-dimethyl-1H-benzo[d][1,2,3]triazol-5-yl)-3-(3-(((R)-2-ethyl-2,3,8,9,10,11-hexahydronaphtho[2,1-f][1,4]oxazepin-4(5H)-yl)methyl)-4-methylphenyl)-2,2-dimethylpropanoic Acid], for which the fold induction at 30 mg/kg in the data set with NQO1 [1] was 3 to 6. The Human metabolic rate entry in data set [2] is “B (100≤metabolic rate<150 pmol/min/mg protein)”. The EC (1.5-fold NQO1 activity) in the data set with NQO1 [3] is 0.005 to 0.05 µM. In data set [4], the inhibition at 0.1 µM was no less than 50%.
With `CC[C@@H]1CN(Cc2cc(C(c3ccc4c(nnn4C)c3C)C(C)(C)C(=O)O)ccc2C)Cc2cc3nn(C)cc3cc2O1` (stereo partly drawn) [Example 66-(b), 3-(1,4-dimethyl-1H-benzo[d][1,2,3]triazol-5-yl)-3-(3-(((R)-6-ethyl-2-methyl-2,6,7,9-tetrahydro-8H-[1,4]oxazepino[7,6-f]indazol-8-yl)methyl)-4-methylphenyl)-2,2-dimethylpropanoic Acid], in the data set with NQO1 [1], the fold induction at 20 mg/kg was greater than 6. The Human metabolic rate entry in data set [2] is on record as “E (metabolic rate≥250 pmol/min/mg protein)”. Besides, the EC (1.5-fold NQO1 activity) with NQO1 [3] was in the range of 0.0005 to 0.005 µM. Further, the inhibition at 0.1 µM in data set [4] is no less than 50%.
With `Cc1ccc(C(c2ccc3c(nnn3C)c2C)C(C)(C)C(=O)O)cc1CN1CCOc2cc3cccnc3cc2C1` (stereo not shown) [Example 63-(b), 3-(3-((2,3-dihydro-[1,4]oxazepino[7,6-g]quinolin-4 (5H)-yl)methyl)-4-methylphenyl)-3-(1,4-dimethyl-1H-benzo[d][1,2,3]triazol-5-yl)-2,2-dimethylpropanoic Acid], the fold induction at 30 mg/kg in the data set on NQO1 [1] was 3 to 6. Besides, the Human metabolic rate result in data set [2] is given as “C (150≤metabolic rate<200 pmol/min/mg protein)”. In addition, the EC (1.5-fold NQO1 activity) in the data set on NQO1 [3] is 0.005 to 0.05 µM. In addition, the inhibition at 0.1 µM in data set [4] is no less than 50%.
As to `CC[C@@H]1CN(Cc2cc(C(c3ccc4c(nnn4C)c3C)C(C)(C)C(=O)O)ccc2C)Cc2cc3nccc(C)c3cc2O1` (stereo partly drawn) [Example 71-(b), 3-(1,4-dimethyl-1H-benzo[d][1,2,3]triazol-5-yl)-3-(3-(((R)-2-ethyl-10-methyl-2,3-dihydro-[1,4]oxazepino[7,6-g]quinolin-4 (5H)-yl)methyl)-4-methylphenyl)-2,2-dimethylpropanoic Acid], the fold induction at 20 mg/kg with NQO1 [1] was greater than 6. Also, the Human metabolic rate result in data set [2] is “D (200≤metabolic rate<250 pmol/min/me protein)”. Also, the EC (1.5-fold NQO1 activity) in the data set on NQO1 [3] is 0.0005 to 0.005 µM. The inhibition at 0.1 µM in data set [4] is no less than 50%.
In the case of `CC[C@@H]1CN(Cc2cc(C(c3ccc4c(nnn4C)c3C)C(C)(C)C(=O)O)ccc2C)Cc2c(ccc3ncccc23)O1` (stereo partly drawn) [Example 18-(b), 3-(1,4-dimethyl-1H-benzo[d][1,2,3]triazol-5-yl)-3-(3-(((R)-4-ethyl-3,4-dihydro-[1,4]oxazepino[6,7-f]quinolin-2(1H)-yl)methyl)-4-methylphenyl)-2,2-dimethylpropanoic Acid], the fold induction at 30 mg/kg in the data set on NQO1 [1] lay in the range of 3 to 6. Moreover, the Human metabolic rate entry in data set [2] is recorded as “E (metabolic rate≥250 pmol/min/mg protein)”. In the data set with NQO1 [3], the EC (1.5-fold NQO1 activity) is 0.005 to 0.05 µM. The inhibition at 0.1 µM in data set [4] is no less than 50%.
For the compound `Cc1ccc(C(c2ccc3c(nnn3C)c2C)C(C)(C)C(=O)O)cc1CN1Cc2cc3ncccc3cc2OC2(CC2)C1` (stereo not shown) [Example 76-(b), 3-(3-((3′H-spiro[cyclopropane-1,2′-[1,4]oxazepino[7,6-g]quinoline]-4′ (5′H)-yl)methyl)-4-methylphenyl)-3-(1,4-dimethyl-1H-benzo[d][1,2,3]triazol-5-yl)-2,2-dimethylpropanoic Acid], the fold induction at 20 mg/kg in the data set with NQO1 [1] is greater than 6. Moreover, the Human metabolic rate result in data set [2] is “B (100≤metabolic rate<150 pmol/min/mg protein)”. The EC (1.5-fold NQO1 activity) with NQO1 [3] was 0.0005 to 0.005 µM. In data set [4], the inhibition at 0.1 µM is no less than 50%.
As for `CC[C@@H]1CN(Cc2cc(C(c3ccc4c(nnn4C)c3C)C(C)(C)C(=O)O)ccc2C)Cc2cc3cccnc3cc2O1` (stereo partly drawn) [Example 11-(b), 3-(1,4-dimethyl-1H-benzo[d][1,2,3]triazol-5-yl)-3-(3-(((R)-2-ethyl-2,3-dihydro-[1,4]oxazepino[6,7-g]quinolin-4(5H)-yl)methyl)-4-methylphenyl)-2,2-dimethylpropanoic Acid], the fold induction at 30 mg/kg with NQO1 [1] was greater than 6. Moreover, in data set [2], the Human metabolic rate entry was “D (200≤metabolic rate<250 pmol/min/me protein)”. Besides, in the data set with NQO1 [3], the EC (1.5-fold NQO1 activity) lay within 0.0005 to 0.005 µM. In addition, the inhibition at 0.1 µM in data set [4] was no less than 50%.
Consider `CC[C@@H]1CN(Cc2cc(C(c3ccc4c(nnn4C)c3C)C(C)(C)C(=O)O)ccc2C)Cc2cc3ccsc3cc2O1` (stereo partly drawn) [Example 72-(b), 3-(1,4-dimethyl-1H-benzo[d][1,2,3]triazol-5-yl)-3-(3-(((R)-2-ethyl-2,3-dihydrothieno[2′,3′:4,5]benzo[1,2-f][1,4]oxazepin-4(5H)-yl)methyl)-4-methylphenyl)-2,2-dimethylpropanoic Acid], for which the fold induction at 20 mg/kg in the data set with NQO1 [1] was no more than 3. The Human metabolic rate result in data set [2] was “A (metabolic rate<100 pmol/min/mg protein)”. In the data set with NQO1 [3], the EC (1.5-fold NQO1 activity) was 0.005 to 0.05 µM. Besides, the inhibition at 0.1 µM in data set [4] is no less than 50%.
As to `CC[C@@H]1CN(Cc2cc(C(c3ccc4c(nnn4C)c3C)C(C)(C)C(=O)O)ccc2C)Cc2ncc3ccccc3c2O1` (stereo partly drawn) [Example 25-(b), 3-(1,4-dimethyl-1H-benzo[d][1,2,3]triazol-5-yl)-3-(3-(((R)-2-ethyl-2,3-dihydro-[1,4]oxazepino[6,7-c]isoquinolin-4(5H)-yl)methyl)-4-methylphenyl)-2,2-dimethylpropanoic Acid], in the data set with NQO1 [1], the fold induction at 30 mg/kg is greater than 6. In data set [2], the Human metabolic rate entry was “D (200≤metabolic rate<250 pmol/min/me protein)”. In the data set with NQO1 [3], the EC (1.5-fold NQO1 activity) was in the range of 0.0005 to 0.005 µM. The inhibition at 0.1 µM in data set [4] was no less than 50%.

Source of the values: patent publication US12559504B2, “Benzotriazole derivative” (UBE CORPORATION, priority 2019, dated 2026).
